Key:
P388 = test: In vivo antitumor activity against mouse P388 cells at 0.1 to 1.6 ug/kg; type: functional
KB = test: Cytotoxicity against human KB cells; type: functional

COc1cc2cc(c1Cl)N1CC(=O)C(C)(O)C(=O)N(C)[C@@H](C)C(=O)O[C@@H](CC1=O)[C@@]1(C)O[C@H]1[C@H](C)[C@@H]1C[C@@](O)(NC(=O)O1)[C@H](OC)/C=C/C=C(\C)C2 (some centres not stated) [MAYTANBICYCLINOL]
T/C (P388): 140% | ED50 (KB): <1 ×10⁻⁵ ug/ml
